Measured values: EP0937727A1, “Soluble crystalline cefuroxime axetil” (priority 1998, dated 1999)
Several values for one entry are separate records, joined by “and”; a condition that tells them apart may be missing. Identical values can stand only once.

What was measured:
[1] = Dissolution (solubility) test of the active ingredient from standardised tablets according to USP 23, p. 316; type: physicochemical; settings: test gemäß USP 23, nach 45 Minuten
Text: Im Anschluß beschreibt USP 23, Seite 316 einen Test für die Bestimmung der Bioverfügbarkeit dieses, aus beiden Diastereomeren etwa im Verhältnis von 1:1 bestehenden amorphen Produktes. Hierzu wird die Löslichkeit des Wirkstoffes aus einer standardisierten Tablettenformulierung in […] bestimmt. Zuläßlich sind solche Produkte, bei denen in 15 Minuten mindestens 60% des angegebenen Gehaltes an Wirkstoff und innerhalb von 45 Minuten mindestens 75% des angegebenen Wirkstoffes aufgelöst sind.
Das Produkt gemäß EP-A1 0 757 991 läßt sich nach der dortigen Vorschrift erzeugen. Die Löslichkeit des Wirkstoffes (aus der tablettierten Form) wie im folgenden beschrieben und bestimmt nach dem Standardverfahren gem. USP 23, S. 316, erreicht jedoch nach 45 Minuten nur etwas mehr als 40 %.
Dann wurden mit dem so gewonnenen Wirkstoff einerseits, dem erfindungsgemäßen Wirkstoff andererseits Tabletten hergestellt, und zwar nach folgendem Verfahren: 305 mg kristallines Cefuroxim axetil wurden mit 50 mg Ac disol, 50 mg Avicel pH 105, 7,5 mg Aerosil 200, 2,5 mg Magnesiumstearat und 7,5 Explotab trocken vermischt. Das Gemisch wurde trocken verpreßt und granuliert. Das so erhaltene Granulat wurde mit 7,5 mg Explotab und 7,5 mg Natriumlaurylsulfat vermischt und das erhaltene Gemisch wurde dann zu Tabletten gepreßt.
Mit den so erhaltenen Tabletten wurde jeweils der Löslichkeitstest gemäß USP 23 durchgeführt. […]

[2] = known crystalline form of the prior art; compared with the prescribed minimum (60% in 15 Minuten, 75% in 45 Minuten); cited from earlier work

## CO/N=C(\C(=O)N[C@@H]1C(=O)N2C(C(=O)OC(C)OC(C)=O)=C(COC(N)=O)CS[C@H]12)c1ccco1 (single isomer, unassigned) [Beispiel 2]
[1]; listed as kristalline Form von (R,S)-Cefuroxim axetil gemäß USP 23
  Löslichkeit (Grad der Auflösung des Wirkstoffes): > 50% and ~75%

## CO/N=C(\C(=O)N[C@@H]1C(=O)N2C(C(=O)OC(C)OC(C)=O)=C(COC(N)=O)CS[C@H]12)c1ccco1 (stereo partly drawn) [Produkt gemäß EP-A1 0 757 991, (R,S)-Cefuroxim axetil]
[1]
  Löslichkeit (Grad der Auflösung des Wirkstoffes): > 40%

## CO/N=C(\C(=O)N[C@@H]1C(=O)N2C(C(=O)OC(C)OC(C)=O)=C(COC(N)=O)CS[C@H]12)c1ccco1 (stereo partly drawn) [kristalline (R,S)-Cefuroxim axetil, (R,S)-Cefuroxim axetil]
[2]
  Löslichkeit im Test gemäß USP 23: bei weitem nicht die vorgeschriebene Mindestlöslichkeit
